Drawing on US10954216B2, “BMP-signal-inhibiting compound” (RIKEN, priority 2016, dated 2021), this text covers IC50 for 12 compounds.

As usually defined, the IC50 is the point on the concentration scale where inhibition reaches its midpoint.

The test has as its system BMP signal in MDA-231-D-BREFluc/Rluc cells. The experiment in a line: BMP signal inhibitory effect (AlphaScreen SureFire SMAD1 p-Ser463/465, BMP-6 stimulation). In kind it is cell-based. To be noted: BMP-6 stimulated MDA-231-D-BREFluc/Rluc cells, phospho-SMAD1 AlphaScreen; read-out: IC50. An outline of the steps:
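MDA-231-D-BREFluc/Rluc cells were pretreated with compound for 2 h at 37° C, then stimulated with BMP-6 for 30 min. SMAD1 p-Ser463/465 in lysates was measured by AlphaScreen SureFire.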
Background: Bead proximity is the source of the signal in Alpha formats.
`CCn1cc(-c2ccnc(Nc3ccc(OC4CN(CCOC)C4)cc3)n2)c(-c2cccnc2)n1` [Example 92, 4-(1-Ethyl-3-(pyridin-3-yl)-1H-pyrazol-4-yl)-N-(4-((1-(2-methoxyethyl)azetidin-3-yl)oxy)phenyl) pyrimidin-2-amine]: the IC50 was determined as 11.9 nM.

As to `CCn1cc(-c2ccnc(Nc3ccc4c(c3)CCN(CCOC)CC4)n2)c(-c2cccnc2)n1` [Example 93, N-(4-(1-Ethyl-3-(pyridin-3-yl)-1H-pyrazol-4-yl)pyrimidin-2-yl)-3-(2-methoxyethyl)-2,3,4,5-tetrahydro-1H-benzo [d] azepin-7-amine], the IC50 is 3.8 nM.

On to `CCn1cc(-c2ccnc(Nc3ccc(N4CCCN(CCOC)CC4)cc3)n2)c(-c2cccnc2)n1` [Example 94, 4-(1-Ethyl-3-(pyridin-3-yl)-1H-pyrazol-4-yl)-N-(4-(4-(2-methoxyethyl)-1,4-diazepan-1-yl)phenyl)pyrimidin-2-amine], for which the IC50 was 24.3 nM.

Turning to `CCn1cc(-c2ccnc(Nc3ccc4c(c3)CCN(C3COC3)C4)n2)c(-c2cccnc2)n1` [Example 95, N-(4-(1-Ethyl-3-(pyridin-3-yl)-1H-pyrazol-4-yl)pyrimidin-2-yl)-2-(oxetan-3-yl)-1,2,3,4-tetrahydroisoquinolin-6-amine], the half-inhibitory concentration (IC50) was 14.8 nM.

On to `CCn1cc(-c2ccnc(Nc3ccc(N4CCN(CC5CC(C)(C)O5)CC4)cc3)n2)c(-c2cccnc2)n1` (stereo not drawn) [Example 96, N-(4-(4-((4,4-dimethyloxetan-2-yl)methyl)piperazin-1-yl)phenyl)-4-(1-ethyl-3-(pyridin-3-yl)-1H-pyrazol-4-yl)pyrimidin-2-amine], for which the half-maximal inhibitory concentration (IC50) turned out to be 20.9 nM.

As for `CCn1cc(-c2ccnc(Nc3ccc(N4CCN(CC5CCOC5)CC4)cc3)n2)c(-c2cccnc2)n1` (stereo not drawn) [Example 97, 4-(1-Ethyl-3-(pyridin-3-yl)-1H-pyrazol-4-yl)-N-(4-(4-((tetrahydrofuran-3-yl)methyl)piperazin-1-yl)phenyl)pyrimidin-2-amine], the IC50 worked out at 15.2 nM.

As to `CCn1cc(-c2ccnc(Nc3ccc(N4CCN(CC5(C)COC5)CC4)cc3)n2)c(-c2cccnc2)n1` [Example 98, 4-(1-ethyl-3-(pyridin-3-yl)-1H-pyrazol-4-yl)-N-(4-(4-((3-methyloxetan-3-yl)methyl)piperazin-1-yl)phenyl)pyrimidin-2-amine], the half-maximal inhibitory concentration (IC50) turned out to be 23.4 nM.

For `CCn1cc(-c2ccnc(Nc3ccc(N4CCN(CC5COC5)CC4)cc3)n2)c(-c2cccnc2)n1` [Example 99, 4-(1-Ethyl-3-(pyridin-3-yl)-1H-pyrazol-4-yl)-N-(4-(4-(oxetan-3-ylmethyl)piperazin-1-yl)phenyl)pyrimidin-2-amine], the IC50 was found to be 20 nM.

Consider `CCn1cc(-c2ccnc(Nc3ccc(C4CCCN(CCOC)C4)cc3)n2)c(-c2cccnc2)n1` (stereo not drawn) [Example 100, 4-(1-Ethyl-3-(pyridin-3-yl)-1H-pyrazol-4-yl)-N-(4-(1-(2-methoxyethyl)piperidin-3-yl)phenyl)pyrimidin-2-amine], for which the concentration for half-maximal inhibition (IC50) worked out at 18.6 nM.

With `COCCN1CCN(c2ccc(Nc3nccc(-c4cn(CC5COC5)nc4-c4cccnc4)n3)cc2)CC1` [Example 102, N-(4-(4-(2-Methoxyethyl)piperazin-1-yl)phenyl)-4-(1-(oxetan-3-ylmethyl)-3-(pyridin-3-yl)-1H-pyrazol-4-yl)pyrimidin-2-amine], the IC50 was 50.4 nM.

`c1cncc(-c2nn(C3COC3)cc2-c2ccnc(Nc3ccc(N4CCN(CC5CC5)CC4)cc3)n2)c1` [Example 103, N-(4-(4-(Cyclopropylmethyl)piperazin-1-yl)phenyl)-4-(1-(oxetan-3-yl)-3-(pyridin-3-yl)-1H-pyrazol-4-yl)pyrimidin-2-amine]: the half-inhibitory concentration (IC50) worked out at 10.4 nM.

`CCn1cc(-c2ccnc(Nc3ccc(N4CCN(CC(O)COC)CC4)cc3)n2)c(-c2cccnc2)n1` (stereo not drawn) [Example 105, 1-(4-(4-((4-(1-Ethyl-3-(pyridin-3-yl)-1H-pyrazol-4-yl)pyrimidin-2-yl)amino)phenyl)piperazin-1-yl)-3-methoxypropan-2-ol]: the IC50 is 33.7 nM.
